Experimental data as given in PMC10436550, “Subacute toxicity evaluations of LPM3480392 in rats, a full µ-opioid receptor biased agonist” (Frontiers in Pharmacology, 2023).
Where two headings read alike, the source gives them in different places.

Experiment: Toxicokinetics, plasma LPM3480392 after intravenous administration
Type: in vivo, Sprague Dawley (SD) rats
Conditions: for concentration at 2 min / AUC(0-t): Sprague-Dawley, rat, plasma; for concentration at 2 min: intravenous; for AUC(0-t): iv
Procedure: Blood samples from animals in LPM3480392 groups were collected at predose and 2 min, 30 min, 1 h and 4 h postdose of the 1st dosing on Days 1 and 28; at 2 min and 4 h postdose of the 2nd dosing on Days 1 and 28; at 2 min, 1 h and 4 h postdose the 3rd dosing on Days 1 and 28. Animals in control group were sampled at predose and 2 min postdose of the 1st dosing on Days 1 and 28. Approximately 0.36 mL of blood was collected from the jugular vein of surviving TK animals at each time point. Whole blood samples were anticoagulated with EDTA-K2 and centrifuged at 2°C–8°C and 1800 × g for 10 min. The harvested plasma was stored below −66°C before the analysis. LC-MS/MS methods (liquid chromatograph/mass spectrometer) were used to detect concentrations of LPM3480392 at each time point. TK parameters (AUC, Cmax, Tmax) were calculated by Phoenix WinNonlin (Pharsight) 8.2. The detection instruments include ultra-performance liquid chromatography (Waters, United States ACQUITY UPLC I -CLASS) and triple quadrupole tandem mass spectrometer (Waters, United States, Xevo TQ-S).

With `Fc1ccc([C@]2(CCNCc3cccc(Cl)c3)CCO[C@]3(CCOC3)C2)nc1` [LPM3480392] the “Accumulation after 28-day repeated dosing” value (0.6–2.4 mg/kg/day) was “No accumulation”, the “Gender difference of mean AUC0–12h in plasma” value (0.6–2.4 mg/kg/day) was “no apparent gender difference” and the concentration at 2 min (both sexes, 0.6 mg/kg/day, 0.6 mg/kg/day iv, 1st dosing day, F + M, read-out: C2min (The 1st dosing)) was 88.3 ± 18.8 ng/mL. The concentration at 2 min (both sexes, 0.6 mg/kg/day, 0.6 mg/kg/day iv, 1st dosing day, F + M, read-out: C2min (The 2nd dosing)) was 68.4 ± 12.8 ng/mL, the concentration at 2 min (both sexes, 0.6 mg/kg/day, 0.6 mg/kg/day iv, 1st dosing day, F + M, read-out: C2min (The 3rd dosing)) was 60.1 ± 10.4 ng/mL and the concentration at 2 min (both sexes, 0.6 mg/kg/day, 0.6 mg/kg/day iv, 28th dosing day, F + M, read-out: C2min (The 1st dosing)) was 87.2 ± 14.7 ng/mL. For the same compound, the concentration at 2 min (both sexes, 0.6 mg/kg/day, 0.6 mg/kg/day iv, 28th dosing day, F + M, read-out: C2min (The 2nd dosing)) was 75.4 ± 10.2 ng/mL, the concentration at 2 min (both sexes, 0.6 mg/kg/day, 0.6 mg/kg/day iv, 28th dosing day, F + M, read-out: C2min (The 3rd dosing)) was 73.9 ± 10.9 ng/mL and the concentration at 2 min (both sexes, 1.2 mg/kg/day, 1.2 mg/kg/day iv, 1st dosing day, F + M, read-out: C2min (The 1st dosing)) was 175 ± 18.6 ng/mL. The concentration at 2 min (both sexes, 1.2 mg/kg/day, 1.2 mg/kg/day iv, 1st dosing day, F + M, read-out: C2min (The 2nd dosing)) was 155 ± 29.4 ng/mL, the concentration at 2 min (both sexes, 1.2 mg/kg/day, 1.2 mg/kg/day iv, 1st dosing day, F + M, read-out: C2min (The 3rd dosing)) was 148 ± 27 ng/mL and the concentration at 2 min (both sexes, 1.2 mg/kg/day, 1.2 mg/kg/day iv, 28th dosing day, F + M, read-out: C2min (The 1st dosing)) was 179 ± 23.2 ng/mL. For the same compound, the concentration at 2 min (both sexes, 1.2 mg/kg/day, 1.2 mg/kg/day iv, 28th dosing day, F + M, read-out: C2min (The 2nd dosing)) was 140 ± 31 ng/mL, the concentration at 2 min (both sexes, 1.2 mg/kg/day, 1.2 mg/kg/day iv, 28th dosing day, F + M, read-out: C2min (The 3rd dosing)) was 149 ± 24.6 ng/mL and the concentration at 2 min (both sexes, 2.4 mg/kg/day, 2.4 mg/kg/day iv, 1st dosing day, F + M, read-out: C2min (The 1st dosing)) was 330 ± 27.6 ng/mL. For the same compound, the concentration at 2 min (both sexes, 2.4 mg/kg/day, 2.4 mg/kg/day iv, 1st dosing day, F + M, read-out: C2min (The 2nd dosing)) was 290 ± 23.1 ng/mL, the concentration at 2 min (both sexes, 2.4 mg/kg/day, 2.4 mg/kg/day iv, 1st dosing day, F + M, read-out: C2min (The 3rd dosing)) was 229 ± 43.6 ng/mL and the concentration at 2 min (both sexes, 2.4 mg/kg/day, 2.4 mg/kg/day iv, 28th dosing day, F + M, read-out: C2min (The 1st dosing)) was 351 ± 61.7 ng/mL. For the same compound, the concentration at 2 min (both sexes, 2.4 mg/kg/day, 2.4 mg/kg/day iv, 28th dosing day, F + M, read-out: C2min (The 2nd dosing)) was 323 ± 89.2 ng/mL, the concentration at 2 min (both sexes, 2.4 mg/kg/day, 2.4 mg/kg/day iv, 28th dosing day, F + M, read-out: C2min (The 3rd dosing)) was 320 ± 34.2 ng/mL and the AUC(0-t) (both sexes, 0.6 mg/kg/day, 0.6 mg/kg/day iv, 1st dosing day, F + M, read-out: AUC0–12h) was 315 ± 43.7 ng·h/mL. It also gave an AUC(0-t) (both sexes, 0.6 mg/kg/day, 0.6 mg/kg/day iv, 28th dosing day, F + M, read-out: AUC0–12h) of 349 ± 38.2 ng·h/mL, an AUC(0-t) (both sexes, 0.6 mg/kg/day, female + male, 0.6 mg/kg/day, Day 1, read-out: Mean AUC0–12h) of 315 ng·h/mL and an AUC(0-t) (both sexes, 0.6 mg/kg/day, female + male, 0.6 mg/kg/day, Day 28, read-out: Mean AUC0–12h) of 349 ng·h/mL. The AUC(0-t) (both sexes, 1.2 mg/kg/day, 1.2 mg/kg/day iv, 1st dosing day, F + M, read-out: AUC0–12h) was 663 ± 114 ng·h/mL, the AUC(0-t) (both sexes, 1.2 mg/kg/day, 1.2 mg/kg/day iv, 28th dosing day, F + M, read-out: AUC0–12h) was 680 ± 74.5 ng·h/mL and the AUC(0-t) (both sexes, 1.2 mg/kg/day, female + male, 1.2 mg/kg/day, Day 1, read-out: Mean AUC0–12h) was 663 ng·h/mL. The AUC(0-t) (both sexes, 1.2 mg/kg/day, female + male, 1.2 mg/kg/day, Day 28, read-out: Mean AUC0–12h) was 680 ng·h/mL, the AUC(0-t) (both sexes, 2.4 mg/kg/day, 2.4 mg/kg/day iv, 1st dosing day, F + M, read-out: AUC0–12h) was 1250 ± 93.6 ng·h/mL and the AUC(0-t) (both sexes, 2.4 mg/kg/day, 2.4 mg/kg/day iv, 28th dosing day, F + M, read-out: AUC0–12h) was 1490 ± 169 ng·h/mL. For the same compound, the AUC(0-t) (both sexes, 2.4 mg/kg/day, female + male, 2.4 mg/kg/day, Day 1, read-out: Mean AUC0–12h) was 1250 ng·h/mL, the AUC(0-t) (both sexes, 2.4 mg/kg/day, female + male, 2.4 mg/kg/day, Day 28, read-out: Mean AUC0–12h) was 1490 ng·h/mL and the “Mean AUC0–12h ratio, Day 28 and Day 1” value (female + male, 1.2 mg/kg/day) was 1.0. The “Mean AUC0–12h ratio, Day 28 and Day 1” value (female + male, 2.4 mg/kg/day) was 1.2, the concentration at 2 min (female, 0.6 mg/kg/day, 0.6 mg/kg/day iv, 1st dosing day, F, read-out: C2min (The 1st dosing)) was 78.4 ± 10.9 ng/mL and the concentration at 2 min (female, 0.6 mg/kg/day, 0.6 mg/kg/day iv, 1st dosing day, F, read-out: C2min (The 2nd dosing)) was 66.2 ± 12.4 ng/mL. For the same compound, the concentration at 2 min (female, 0.6 mg/kg/day, 0.6 mg/kg/day iv, 1st dosing day, F, read-out: C2min (The 3rd dosing)) was 55.5 ± 8.94 ng/mL, the concentration at 2 min (female, 0.6 mg/kg/day, 0.6 mg/kg/day iv, 28th dosing day, F, read-out: C2min (The 1st dosing)) was 90.1 ± 8.8 ng/mL and the concentration at 2 min (female, 0.6 mg/kg/day, 0.6 mg/kg/day iv, 28th dosing day, F, read-out: C2min (The 2nd dosing)) was 73 ± 12.6 ng/mL. For the same compound, the concentration at 2 min (female, 0.6 mg/kg/day, 0.6 mg/kg/day iv, 28th dosing day, F, read-out: C2min (The 3rd dosing)) was 68.5 ± 11.8 ng/mL and the concentration at 2 min (female, 1.2 mg/kg/day, 1.2 mg/kg/day iv, 1st dosing day, F, read-out: C2min (The 1st dosing)) was 181 ± 24.8 ng/mL.
